Test results from PubChem BioAssay (NCI).
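Values below derive from 48-hour exposures of cells grown in 96-well plates, with endpoints linearly interpolated between the two concentrations bracketing the appropriate inhibition level. The concentration for 50% growth inhibition is given as GI50. The concentration for full growth arrest is given as TGI.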

Assays:
Assay in all cases: inhibition of tumour cell growth, NCI panel, 48 h
[1] = tested on: HOP-92 NSCLC
[2] = tested on: U251 CNS
[3] = tested on: RPMI-8226 leukemia
[4] = tested on: CAKI-1 renal
[5] = tested on: HL-60(TB) leukemia
[6] = tested on: CCRF-CEM leukemia
[7] = tested on: HCT-116 colon
[8] = tested on: MOLT-4 leukemia
[9] = tested on: LXFL 529 NSCLC
[10] = tested on: DMS 114 small cell lung
[11] = tested on: KM20L2 colon
[12] = tested on: SNB-78 CNS

| SMILES | GI50 [1] [µM] | TGI [1] [µM] | GI50 [2] [µM] | TGI [2] [µM] | GI50 [3] [µM] | TGI [3] [µM] | GI50 [4] [µM] | TGI [4] [µM] | GI50 [5] [µM] | TGI [5] [µM] | GI50 [6] [µM] | TGI [6] [µM] | GI50 [7] [µM] | TGI [7] [µM] | GI50 [8] [µM] | TGI [8] [µM] | TGI [9] [µM] | TGI [10] [µM] | TGI [11] [µM] | TGI [12] [µM] |
| --- | --- | --- | --- | --- | --- | --- | --- | --- | --- | --- | --- | --- | --- | --- | --- | --- | --- | --- | --- | --- |
| O=[N+]([O-])c1cccc(-c2nc3sccn3c2-c2ccnc(NCCCNS(=O)(=O)c3ccc(F)cc3)n2)c1 | 1.74 | > 100 | 3.73 | > 100 | 0.677 | 2.94 | 2.33 | > 100 | 2.55 | 6.69 | 1.2 | 7.81 | 2.85 | > 100 | 1.23 | 5.52 |  |  |  |  |
| Nc1nc(-n2cccn2)nc(-n2cccn2)c1Br | > 100 | > 100 | > 100 | > 100 | > 100 | > 100 | 93.7 | > 100 | > 100 | > 100 | > 100 | > 100 | > 100 | > 100 | > 100 | > 100 |  |  |  |  |
| c1ccc(-c2nc(Nc3ccc(-c4nc5ccccc5[nH]4)cc3)nc(N3CCOCC3)n2)cc1 | 1.38 | 3.05 | 0.535 | 1.76 | 1.11 | 4.23 | 1.28 | 2.54 | 0.031 | 0.601 | 0.545 | 3.12 | 0.394 | 1.62 | 1.33 | 3.53 |  |  |  |  |
| CCN(CC)c1ccc(/C=N/NC(=O)c2ccc(Nc3ccnc(C(F)(F)F)c3)cc2)c(O)c1 | 1.05 | > 100 | 0.145 | > 37.6 | 0.12 | 0.555 | 0.268 | 2.07 | 0.258 | 0.791 | 0.0532 | 0.771 | 0.141 | 1.34 | 0.117 | 1.38 |  |  |  |  |
| O=C(O)Cc1cc(=O)oc2cc(O)c(Cl)cc12 |  | > 100 |  | > 100 |  | > 100 |  | > 100 |  | > 100 |  | > 100 |  | > 100 |  | > 100 | > 100 | > 100 | > 100 |  |
| COC(=O)c1c/c(=N\NC(=O)CC(=O)Nc2ccccc2Cl)c2ccccc2o1 |  |  |  | > 100 |  | > 100 |  | > 100 |  | > 100 |  |  |  | > 100 |  | > 100 | > 100 | > 100 | > 100 | > 100 |
| CCCOc1ccc(/C=C/c2cc(OC)c(OC)c(OC)c2)cc1 |  | 7.41 |  | > 29.6 |  | 28.4 |  | 37.6 |  | 1.16 |  | 24.5 |  | > 33.3 |  | 13.2 | > 100 |  | 0.406 | > 100 |
| N#Cc1nc(-c2cccc(Br)c2)cc(-c2ccc(Nc3nc(N4CCCCC4)nc(N4CCCCC4)n3)cc2)c1N | 1.68 | 3.36 | 1.72 | 3.38 | 2.19 | 24 | 1.93 | 5.03 | 2.27 | 6.47 | 0.587 | > 100 | 1.55 | 3.19 | 1.1 | > 100 |  |  |  |  |
| C[C@]12CC[C@H]3[C@@H](CC=C4C[C@@H](O)CC[C@@]43C)[C@@H]1C/C(=C\c1cccc(OCCN3CCOCC3)c1)[C@@H]2O | > 100 | > 100 | > 100 | > 100 | 7.83 | > 100 | > 100 | > 100 | 21.5 | > 100 | 41.1 | > 100 | 80.6 | > 100 | 13.3 | 48.7 |  |  |  |  |
| COC(=O)c1nc(-c2ccc(Cl)c(Cl)c2)nc2ccccc12 |  |  |  | > 100 |  | > 100 |  | > 100 |  | > 100 |  | > 100 |  | > 100 |  | > 100 | > 100 | > 100 | > 100 | > 100 |
| C=C1C(=O)O[C@H]2[C@H]1CC/C(COC(=O)NCCc1ccc(OC)cc1)=C\CC[C@@]1(C)O[C@@H]21 | 1.99 | 6.19 | 11.1 | 23.5 | 2.85 | 7.59 | 2.52 | 7.53 | 2.34 | 5.72 | 1.98 | 7.74 | 1.34 | 2.84 | 2.61 | 6.77 |  |  |  |  |
| CCNC(=O)C(O)C1(O)CCC2[C@@H]3CCC4=CC(=O)C=C[C@]4(C)C3[C@@H](O)C[C@@]21C (stereo partly drawn) |  |  |  | > 100 |  | > 100 |  | > 100 |  | > 79.4 |  | > 100 |  | > 100 |  | > 100 | > 100 | > 100 | > 100 | > 100 |
| N#CCCc1nc2ccc(Br)cc2c(=O)n1-c1ccc(O)c([N+](=O)[O-])c1 |  | 51.6 |  |  |  | 40 |  | 92.6 |  | 41.9 |  | 71.7 |  |  |  | 54.3 | 40 |  | > 100 | 76.7 |
| CCOC(=O)c1sc(=S)c2c(C(=O)c3ccccc3)c(C(=O)c3ccccc3)sc2c1C(=O)OCC | 4.74 | 90.1 | 3.49 | > 100 | 2.87 | 9.19 | 3.93 | > 100 | 2.71 | 7.58 | 2.1 | 5.99 | 4.16 | > 100 | 3.58 | > 100 |  |  |  |  |
| O=S(=O)(O)C(F)(F)C(F)(F)C(F)(F)C(F)(F)F |  | > 100 |  | > 100 |  | > 100 |  | > 100 |  | > 100 |  | > 100 |  | > 100 |  | > 100 | > 100 | > 100 | > 100 |  |
| Cc1ccc2sc3cc(=O)cc(C)c-3nc2c1 |  | > 100 |  | > 100 |  |  |  | 93.1 |  | 66 |  | 93.8 |  | > 100 |  | > 100 | > 100 | > 100 | > 100 | > 100 |
